# Results taken from US20090054403A1, “Treatment of Post-Traumatic Stress Disorder” (priority 2007, published 2009).
# “Also recorded” adds a separate entry of the source.
# How the values were obtained:
# [1] = test system: spontaneous motor activity; assay: Spontaneous motor activity on day ten of chronic dosing
# Procedure: (§1) The effects of chronic dosing of nepicastat were examined. Between three and thirteen days prior to the first dosing day the rats were placed inside the startle apparatus and after a five minute acclimation period they were presented with a 118 dB noise burst on average once a minute (a variable inter-trial interval ranging between 30 and 90 seconds will be used) for 20 minutes. The startle responses were measured and a mean for the last twenty startle response was calculated for each rat.
# The animals were tested in an enclosed room with a white noise generator running. Motor activity tests were conducted immediately after the body core temperature reading taken on dosing day ten (about 3 hours and 35 minutes after the morning daily dose of nepicastat, and SKF-102698, and 20 minutes prior to the daily administration of clonidine and d-amphetamine on dosing day ten). Motor activity tests were run for one hour. A diagnostic program was run on each of the motor activity chambers prior to each test session to assure that the photo beams and light sensors were operating properly. […] D-amphetamine was used as the positive control for this assay.
# Each rats spontaneous locomotion was obtained by calculating the total number of photobeams that the subject broke during the testing session.
# Spontaneous motor activity was measured for each animal every 15 min for 1 hour. Each time block (every 15 min) was analyzed separately. Kruskal-Wallis test (nonparametric technique) was performed to test for the difference between treatment groups. If the overall significant difference […], Bonferroni's adjustment for multiple comparisons is then made.
# pre-pulse inhibition = assay: Pre-pulse inhibition of acoustic startle on day ten of chronic dosing
# Procedure: as §1
# Acoustic startle reactivity (a series of muscle contractions elicited by an intense burst of noise with a rapid onset), and pre-pulse inhibition (sensorimotor gating measured by analyzing any decrease in startle reactivity which occurs when a startling stimulus is immediately preceded by a non startling stimulus) were both measured in eight SR-Lab (San Diego Instruments, San Diego, Calif.) test stations. The rats were placed individually in a Plexiglas cylinder (10 cm diameter) which was housed in a ventilated sound-attenuating enclosure. Acoustic noise bursts (a broad band noise with a rise time and fall time of 1 msec) were presented via a speaker mounted 30 cm above the animal. Also, these speakers produced a 68 dB level of background noise throughout all test sessions. […] A decibel meter was used to calibrate the speakers in each of the eight test station to ±1% of the mean. Additionally, a SR-Lab calibrating instrument was used to calibrate each of the eight startle detection apparatuses to ±2% of the mean. Startle reactivity and pre-pulse inhibition tests were run concurrently immediately alter the motor activity test (about 4 hours and 40 minutes after the morning daily injection of nepicastat, and SKF-102698, and 10 minutes after a supplemental administration of clonidine and d-amphetamine on dosing day ten).
# locomotor activity = assay: Infrared activity monitoring (IRAM) in MPTP-lesioned monkeys; format: in vivo, squirrel monkeys (Saimiri sciureus)
# Procedure: Drug nepicastat or water (as placebo) was administered for 12 days following a minimum 2 day washout after L-Dopa dosing. Drug was administered twice daily at 10 am and 2 pm by oral gavage. Behavior was rated by IRAM and CRS. The CRS was conducted in the morning, 60 to 90 minutes after the 10 am dose of nepicastat on the last 5 days of drug treatment. Raters (one to three individuals) were blinded to the different treatment groups. IRAM assessments were preformed for 90 minutes immediately following drug administration at 2 pm on the last 5 days of drug treatment.
# IRAM Locomotor activity was monitored every 10 minutes for a minimum of 90 minutes following each drug level. A higher rating is considered a faster (less parkinsonian) animal.
# Statistical analysis consisted of descriptive statistics and graphing the mean of each 10 minutes data blocks of placebo and experimental drug at 1, 4, and 10 mg/kg. The graph was then examined to detect any trends. Further statistical analysis was not performed since no difference was determined from graphical analysis.
# [2] = test system: mean arterial pressure and heart rate; assay: Heart rate and mean arterial pressure in restrained SHR with SCH-23390 pretreatment; format: in vivo, spontaneous hypertensive rats
# Description: Male, spontaneous hypertensive rats (280-345 g; Charles River Labs, Kingston, N.Y.) were fasted overnight then anesthetized with ether. A femoral artery and femoral vein were cannulated with PE50 tubing for recording of blood pressure and administration of compounds, respectively. Animals were then placed in MAYO restrainers and their feet loosely taped to the restrainer. Heparinized saline (50 units sodium heparin/ml) was used to maintain patency of each cannula throughout the experiment. The following parameters were continuously recorded using Modular Instruments MI^2 BioReport™ software installed on an IBM personal computer: mean arterial pressure (MAP), heart rate (HR), and the change from baseline for each parameter at specified time points in the experiment.
# All compounds were dissolved on the day of use. nepicastat was dissolved in deionized water (vehicle) to a free base concentration of 1 mg/ml. Oral dosing volume for nepicastat or vehicle was 10 ml/kg. SCH-23390 was dissolved in saline (vehicle) to a free base concentration of 0.2 mg/ml. […] or saline were administered intravenously as a bolus in a volume of 1.0 ml/kg followed by 0.2 ml flush of isotonic saline.
# Following surgical preparation, each animal was allowed a minimum one hour recovery period. Animals were randomly assigned to four treatment groups: vehicle (iv)/vehicle (po); vehicle (iv)/nepicastat (po); SCH-23390 (iv)/vehicle (po); or SCH-23390 (iv)/nepicastat (po). Once animals were stabilized (minimum one hour), baseline blood pressure and heart rate was determined by taking an average of each parameter over a 15 min period of time. Once baseline blood pressure and heart rate were established, animals were dosed intravenously with either SCH-23390 (200 μg/kg) or vehicle (saline, 1 ml/kg). Fifteen minutes later, animals were orally dosed with either nepicastat (10 mg/kg) or vehicle (deionized water, 10 ml/kg).
# Recorded parameters were measured 15 min prior to intravenous dosing to establish baseline blood pressure and heart rate. Recorded parameters were then measured at 5, 10, and 15 min following intravenous administration of SCH-23390 or vehicle. Following oral administration of nepicastat or vehicle, recorded parameters were measured at 15, 30, 60, 90, 120, 150, 180, 210, and 240 min.
# At the end of the experiment, each animal was anesthetized with halothane and euthanized via decapitation. The cortex, left ventricle (apex), and mesenteric artery were dissected out, weighed, and fixed in 0.4 M perchloric acid. […] Blood pressure and heart rate were analyzed separately. The change from baseline for blood pressure and heart rate were analyzed by an analysis of variance (ANOVA) with effects for treatment, time, and their interaction. […]
compound,measurement,setting,value
"Fc1cc(F)cc(Cn2cc[nH]c2=S)c1 [SKF 102698, reference compound]",spontaneous motor (locomotor) activity vs vehicle,"[1]; day ten of b.i.d. oral dosing, 1 hour",significantly lower locomotor activity than its vehicle control at the first 45 minutes
same,spontaneous motor (locomotor) activity vs vehicle,"[1]; day ten of b.i.d. oral dosing, 1 hour, listed as SKF102698",significantly reduced
same,percent prepulse inhibition vs vehicle,pre-pulse inhibition; day ten of b.i.d. oral dosing,marginally higher percent prepulse inhibition; also recorded: Neither d-amphetamine nor SKF 102698 was significantly different
"Cl.NCc1c[nH]c(=S)n1[C@H]1CCc2c(F)cc(F)cc2C1 [nepicastat, (S)-5-Aminomethyl-1-(5,7-difluoro-1,2,3,4-tetrahydronaphth-2-yl)-2,3-dihydro-2-thioxo-1H-imidazole hydrochloride]",spontaneous motor (locomotor) activity vs vehicle,"[1]; rat, in vivo, po",no overall significant treatment effect
same,percent prepulse inhibition vs vehicle,"pre-pulse inhibition; rat, in vivo, po",None of the nepicastat dose groups were significantly different
same,activity monitoring compared to placebo,locomotor activity; 1 mg/kg/day,slower than placebo treatment
same,activity monitoring compared to placebo,"locomotor activity; 4 and 10 mg/kg/day, 10 to 90 minutes post-dosing",no difference
same,mean arterial pressure vs vehicle,[2]; 10 mg/kg oral,significant decrease (p<0.05) in mean arterial pressure by 30 min post dose
same,heart rate vs vehicle,"[2]; SCH-23390 200 μg/kg iv, nepicastat 10 mg/kg po",did not decrease the heart rate as much as observed in vehicle treated animals
same,antihypertensive effects of nepicastat after pretreatment with SCH-23390,"[2]; nepicastat 10 mg/kg po, SCH-23390 iv, hydrochloride",not attenuated; also recorded: did not significantly attenuate
